According to the supplement of paper PMC10307832:

Tests used:
Assay in all cases: relative viability (nuclei count vs DMSO), 5 days (fraction); higher = more cells survive
Decitabine + AZD7762 = compound: Nc1ncn([C@H]2C[C@H](O)[C@@H](CO)O2)c(=O)n1 [Decitabine] + NC(=O)Nc1cc(-c2cccc(F)c2)sc1C(=O)N[C@H]1CCCNC1 [AZD7762] (partner 0.2 µM)
Method in brief: (§1)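 Dosing by pin tool came one day after lung cancer cell lines were seeded in 1536-well plates, using either one drug or a fixed anchor-drug dose plus five library-drug doses (not always all listed) in √10 steps. After 5 days, nuclei were counted on 4× images. Relative viability is treated-well nuclei count divided by vehicle-well nuclei count, and values are medians of duplicate plates.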

[1] = compound: O=C(C[C@H]1NCCC[C@@H]1O)Cn1cnc2cc(Br)c(Cl)cc2c1=O (racemic) [Halofuginone] + CCNC(=O)c1noc(-c2cc(C(C)C)c(O)cc2O)c1-c1ccc(CN2CCOCC2)cc1 [Luminespib] (partner 0.01 µM)
Method in brief: as §1

[2] = compound: O=C(C[C@H]1NCCC[C@@H]1O)Cn1cnc2cc(Br)c(Cl)cc2c1=O (racemic) [Halofuginone] + C[C@@H](Oc1cc(-c2cnn(C3CCNCC3)c2)cnc1N)c1c(Cl)ccc(F)c1Cl [Crizotinib] (partner 1 µM)
Method in brief: as §1

Halofuginone + Dasatinib = compound: O=C(C[C@H]1NCCC[C@@H]1O)Cn1cnc2cc(Br)c(Cl)cc2c1=O (racemic) [Halofuginone] + Cc1nc(Nc2ncc(C(=O)Nc3c(C)cccc3Cl)s2)cc(N2CCN(CCO)CC2)n1 [Dasatinib] (partner 0.075 µM)
Method in brief: as §1

Cell Line	relative viability (Decitabine + AZD7762; first compound 0.04 µM)	relative viability (Decitabine + AZD7762; first compound 0.1265 µM)	relative viability (Decitabine + AZD7762; first compound 0.4 µM)	relative viability (Decitabine + AZD7762; first compound 1.265 µM)	relative viability (Decitabine + AZD7762; first compound 4 µM)	relative viability ([1]; first compound 0.001 µM)	relative viability ([1]; first compound 0.003162 µM)	relative viability ([1]; first compound 0.01 µM)	relative viability ([1]; first compound 0.03162 µM)	relative viability ([1]; first compound 0.1 µM)	relative viability ([2]; first compound 0.001 µM)	relative viability ([2]; first compound 0.003162 µM)	relative viability ([2]; first compound 0.01 µM)	relative viability ([2]; first compound 0.03162 µM)	relative viability ([2]; first compound 0.1 µM)	relative viability (Halofuginone + Dasatinib; first compound 0.001 µM)	relative viability (Halofuginone + Dasatinib; first compound 0.003162 µM)	relative viability (Halofuginone + Dasatinib; first compound 0.01 µM)	relative viability (Halofuginone + Dasatinib; first compound 0.03162 µM)	relative viability (Halofuginone + Dasatinib; first compound 0.1 µM)
NCI-H1666	0.826	0.872	0.696	0.787	0.763	1.01	0.968	0.996	0.958	0.783	1.02	1.02	0.948	0.913	0.582	0.812	0.802	0.753	0.766	0.664
PC-14	0.194	0.281	0.124	0.159	0.116	0.152	0.161	0.183	0.184	0.104	1	0.826	0.727	0.722	0.183	0.259	0.305	0.189	0.0636	0.03
NCI-H1915	0.296	0.266	0.217	0.195	0.201	0.787	0.826	0.794	0.719	0.55	0.897	0.954	0.813	0.894	0.73	0.308	0.332	0.322	0.294	0.23
NCI-H1944	0.331	0.289	0.29	0.218	0.231	0.647	0.7	0.763	0.735	0.313	1.1	1.19	1.11	1.05	0.803	0.229	0.236	0.209	0.207	0.155
PC-3 [JPC-3]	–	0.793	0.6	0.453	0.602	0.705	0.714	0.626	0.823	0.661	1.03	0.969	0.975	0.943	0.988	0.933	0.966	0.955	1.02	1.03
LCLC-103H	0.746	0.728	0.649	0.639	0.551	0.948	1.1	0.968	0.989	0.805	1.09	1	0.972	0.948	0.85	0.551	0.423	0.472	0.48	0.388
EKVX	0.505	0.611	0.549	0.394	0.33	0.868	0.818	0.891	0.871	0.937	0.921	0.9	1.04	0.891	0.635	0.522	0.445	0.662	0.605	0.418
NCI-H460	0.576	0.593	0.361	0.134	0.105	0.0339	0.0272	0.0348	0.0271	0.0193	1.05	1.06	0.866	0.409	0.0383	0.571	0.542	0.445	0.349	0.157
NCI-H2170	0.412	0.52	0.554	0.268	0.245	0.681	0.631	0.557	0.758	0.603	1.27	1.34	1.21	1.21	1	0.623	0.639	0.575	0.444	0.473
NCI-H727	0.562	0.588	0.427	0.462	0.574	0.258	0.327	0.435	0.389	0.355	0.689	1.04	0.771	0.574	0.234	0.417	0.411	0.397	0.396	0.263
NCI-H838	0.74	0.753	0.815	0.68	0.659	0.366	0.257	0.335	0.349	0.158	0.904	0.799	0.815	0.718	0.134	0.312	0.307	0.339	0.228	0.17
NCI-H1792	0.616	0.731	0.478	0.242	0.19	0.498	0.402	0.414	0.452	0.296	1.04	0.973	0.985	0.959	1.03	0.973	0.791	0.844	0.76	0.607
H3255	0.662	0.876	0.617	0.682	0.601	0.807	0.742	0.974	0.908	0.924	0.94	0.948	0.875	0.952	0.791	0.429	0.317	0.357	0.328	0.334
EPLC-272H	0.255	0.195	–	0.158	0.221	0.329	0.169	0.409	0.479	0.206	0.871	0.928	0.879	0.807	0.774	0.366	0.427	0.43	0.37	0.274
NCI-H647	0.345	0.438	0.247	0.139	0.151	0.141	0.153	0.147	0.137	0.129	0.942	1.13	0.978	0.834	0.0795	0.219	0.216	0.188	0.171	0.099
LXF-289	0.82	0.756	0.47	0.316	0.332	0.664	0.701	0.699	0.763	0.317	0.829	0.737	0.746	0.825	0.653	0.318	0.266	0.267	0.222	0.198
